Test results: PMC8410836, “Rational design of hyperstable antibacterial peptides for food preservation” (NPJ Science of Food, 2021)
Values after ≈ are worked out from the molar mass of the structure shown. Read-outs that look alike come from different tables or passages of the source. Where a SMILES comes first, the peptide text is derived from it. Bridges are numbered along the chain shown (N, C = ends).

How the values were obtained:
[1] = test system: Micrococcus luteus ATCC4698
Description: (§1) Four Gram-positive bacteria: Listeria monocytogenes ATCC13932, Bacillus cereus ATCC11778, Staphylococcus aureus ATCC12900, and Micrococcus luteus ATCC4698 and three Gram-negative bacteria: Escherichia coli ATCC11775, Pectobacterium carotovorum MCC2112, and Salmonella typhimurium ATCC9844 were used in this study. These strains were stored at −80 °C in 25% (v/v) glycerol.
(§2) Antimicrobial assays against various bacterial cultures were done using the microdilution broth assay according to the Clinical and Laboratory Standards Institute (CLSI)[64] with some modifications. Mueller-Hinton broth was used to dilute the peptide stock and the bacterial inoculum. Inoculum was prepared from the mid-logarithmic phase culture. Each well of the microtiter plates received aliquots of 100 µL of the media containing different concentrations of peptide ranging from 0.3 to 300 µg/mL. The final concentration of bacteria in the wells was 5 × 10^5 Colony Forming Units (CFU) per mL. Ampicillin was used as positive control. For negative control, ultrapure water was used instead of peptides. Microtiter plates were incubated at 37 °C for 5–6 h with continuous shaking at 130 rpm (M. luteus cells were incubated for 7–8 h). The incubation time used for these assays was initially optimized using a 20-h incubation period. […] MIC assays were performed as three independent experiments in triplicates.

[2] = target: T1, bovine trypsin (Bos taurus, UniProt P00760); settings: BAPNA substrate, pH 8.2, 0.05 M Tris-HCl, 0.02 M CaCl2, 37 °C; double reciprocal and Dixon plot; mean and standard error of two biological replicates
T1 sequence (P00760 24-246): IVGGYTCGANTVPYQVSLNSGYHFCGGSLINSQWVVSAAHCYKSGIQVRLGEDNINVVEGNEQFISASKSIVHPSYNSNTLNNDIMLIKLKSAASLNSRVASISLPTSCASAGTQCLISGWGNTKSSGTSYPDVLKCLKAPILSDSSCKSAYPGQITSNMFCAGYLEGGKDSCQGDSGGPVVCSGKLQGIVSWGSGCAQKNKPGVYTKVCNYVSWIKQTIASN
Description: (§3) The amidase activity of trypsin and its inhibition was assayed using the chromogenic substrate BAPNA at pH 8.2 in 0.05 M Tris-HCl containing 0.02 M CaCl2 at 37 °C. The assay reaction contained 50 µL of trypsin solution (40–50 μg of trypsin in 1 mM HCl), 50 µL of water, and 125 µL of the substrate. The reaction was carried out at 37 °C for 10 min and stopped by addition of 0.25 mL of 30% acetic acid. […] The trypsin solution was incubated with an aliquot of inhibitor for 10 min at 37 °C and reaction started by the addition of 125 µL substrate and incubated at 37 °C for 10 min. […] The effect of varying substrate concentration (BAPNA) on bovine trypsin in the presence of fixed concentrations of peptides was studied. The inhibition constants (Ki) were evaluated using the double reciprocal and Dixon plot of the data[65],[66]. Data presented are averages and standard error calculated from two biological replicate experiments.

[3] = test system: human red blood cells (hRBCs); settings: peptide 0 to 200 μg/mL, 4% hRBCs in PBS, 1 h, 37 °C, absorbance 414 nm, Triton X-100 = 100%; three biological replicates
Description: The hemolytic activity of the peptide was evaluated using human red blood cells (hRBCs). Erythrocytes were separated from 1 mL of blood by centrifugation at 1500 rpm for 10 min. Collected hRBCs were washed three times with PBS, diluted to 4% (v/v) in PBS. Hundred microliters of the hRBCs having peptides ranging from 4 to 200 µg/mL as added into 96-well microtiter plate. The plates were incubated for 1 h at 37 °C without agitation and centrifuged at 1500 rpm for 5 min. Aliquots (100 μL) of the supernatant were transferred to 96-well plates and absorbance was measured at 414 nm. PBS and 1% Triton X-100 were used as control for 0% and 100% hemolysis, respectively. Percentage of hemolysis was calculated as (AT − AC)/(AX − AC) × 100; where AT is the experimental absorbance of treated supernatants, AC is the control absorbance of PBS-treated cell supernatant, and AX is the absorbance of 0.1% (v/v) Triton X-100 lysed cells. Data presented are averages and standard error from three biological replicate experiments.

[4] = target: T1, bovine trypsin; assay: biochemical; settings: SEM
Description: as §3

[5] = test system: Salmonella typhimurium ATCC9844
Description: as §1, §2

[6] = test system: Pectobacterium carotovorum MCC2112
Description: as §1, §2

[7] = test system: Listeria monocytogenes ATCC13932
Description: as §1, §2

[8] = test system: Escherichia coli ATCC11775
Description: as §1, §2

[9] = test system: Bacillus cereus ATCC11778
Description: as §1, §2

[10] = test system: Staphylococcus aureus ATCC12900
Description: as §1, §2

[11] = test system: ARPE-19 cells; settings: 16 h, WST-1, Fig. 10a ARPE-19
Description: Cytotoxicity against adult retinal pigmented epithelial (ARPE-19, ATCC CRL2302) cells was measured using WST assay. ARPE-19 cells growing in log phase were seeded into 96-well cell-culture plates at 4 × 10^4 the cells were incubated at 37 °C for 24 h under 5% CO2. Peptide is added with final concentrations of 4–200 µg/mL in Dulbecco’s modified Eagle medium (DMEM/F12). Nutrient mixture media for the treatment group, whereas for the negative control group, media alone was added. The cells were incubated for 16 h at 37 °C under 5% CO2. Ten microliters of WST-1 reagent was added into each well. Plate was incubated at 37 °C for 2 h. Color intensity was measured at 450 nm. Cytotoxicity data presented are averages and standard error from three biological replicate experiments.

[12] = microdilution broth (CLSI, modified), Mueller-Hinton broth, 5 × 10^5 CFU/mL, 37 °C, 7–8 h, resazurin colour change, three independent experiments in triplicates
[13] = microdilution broth, MH broth, 5 × 10^5 CFU/mL, 37 °C, 5–6 h, resazurin

SMILES | MIC (µg/mL) M. luteus ([1]; ATCC4698) [µg/mL] | Ki (M) against bovine trypsin [2] | hemolytic activity [3] [%] | Ki [4] [µM] | MIC (µg/mL) M. luteus [1, 12] [µg/mL] | MIC Salmonella typhimurium [5, 13] [mg/L] | MIC Pectobacterium carotovorum [6, 13] [mg/L] | MIC Listeria monocytogenes [7, 13] [mg/L] | MIC Escherichia coli [8, 13] [mg/L] | MIC Bacillus cereus [9, 13] [mg/L] | MIC Staphylococcus aureus [10, 13] [mg/L] | cell viability ([11]; peptide concentration 200 µg/mL) [%] | cell viability ([11]; peptide concentration range 0–160 µg/mL, three biological replicates) [%] | MIC Salmonella typhimurium ([5]; ATCC9844) [mg/L] | MIC Pectobacterium carotovorum [6] [mg/L] | MIC Listeria monocytogenes ([7]; ATCC13932) [mg/L] | MIC Escherichia coli ([8]; ATCC11775) [mg/L] | MIC Bacillus cereus ([9]; ATCC11778) [mg/L] | MIC Staphylococcus aureus ([10]; ATCC12900) [mg/L]
CC[C@H](C)[C@H](NC(=O)[C@@H](NC(=O)[C@@H](N)CO)C(C)C)C(=O)N[C@@H](Cc1ccccc1)C(=O)NCC(=O)N[C@H]1CSSC[C@@H](C(=O)N[C@@H](Cc2ccccc2)C(=O)N[C@H](C(=O)NCC(=O)N[C@@H](Cc2ccccc2)C(=O)N[C@@H](CCCCN)C(=O)O)C(C)C)NC(=O)[C@H]([C@@H](C)CC)NC(=O)[C@@H]2CCCN2C(=O)[C@@H]2CCCN2C(=O)[C@H]([C@@H](C)CC)NC(=O)[C@H](CO)NC(=O)CNC(=O)[C@H]([C@@H](C)O)NC1=O [HSEP2-K8G] (H-SVIFGCTGSIPPICFVGFK-OH; disulfide 6-14) | 37.5 (≈ 19 µM) | failed to show any trypsin inhibition |  |  |  |  |  |  |  |  |  |  |  |  |  |  |  |  | 
CC[C@H](C)[C@H](NC(=O)[C@@H](NC(=O)[C@@H](N)CO)C(C)C)C(=O)N[C@@H](Cc1ccccc1)C(=O)NCC(=O)N[C@H]1CSSC[C@@H](C(=O)N[C@@H](Cc2ccccc2)C(=O)N[C@H](C(=O)NCC(=O)N[C@@H](Cc2ccccc2)C(=O)N[C@@H](CCCCN)C(=O)O)C(C)C)NC(=O)[C@H]([C@@H](C)CC)NC(=O)[C@@H]2CCCN2C(=O)[C@@H]2CCCN2C(=O)[C@H]([C@@H](C)CC)NC(=O)[C@H](CO)NC(=O)[C@H](CCCCN)NC(=O)[C@H]([C@@H](C)O)NC1=O [HSEP2] (H-SVIFGCTKSIPPICFVGFK-OH; disulfide 6-14) |  |  | < 5 | 0.58 | 6.25 (≈ 3.06 µM) | >150 | 150 (≈ 73.5 µM) | >150 | 150 (≈ 73.5 µM) | 75 (≈ 36.7 µM) | >150 | > 70 | > 80 |  |  |  |  |  | 
CC[C@H](C)[C@H](NC(=O)[C@@H](NC(=O)[C@H](CO)NC(=O)[C@@H](N)CCCNC(=N)N)C(C)C)C(=O)N[C@@H](Cc1ccccc1)C(=O)NCC(=O)N[C@H]1CSSC[C@@H](C(=O)N[C@@H](Cc2ccccc2)C(=O)N[C@H](C(=O)NCC(=O)N[C@@H](Cc2ccccc2)C(=O)N[C@@H](CCCCN)C(=O)O)C(C)C)NC(=O)[C@H](Cc2ccccc2)NC(=O)[C@H](CCCNC(=N)N)NC(=O)[C@H](CCCNC(=N)N)NC(=O)[C@H](Cc2ccc(O)cc2)NC1=O [HSEP3-∆TL,CL^+] (H-RSVIFGCYRRFCFVGFK-OH; disulfide 7-12) | 3.125 (≈ 1.5 µM) | did not show any anti-trypsin activity |  |  |  |  |  |  |  |  |  |  |  | >150 | >150 | >150 | >150 | >150 | >150
CC[C@H](C)[C@H](NC(=O)[C@@H](NC(=O)[C@H](CO)NC(=O)[C@@H](N)CCCNC(=N)N)C(C)C)C(=O)N[C@@H](Cc1ccccc1)C(=O)NCC(=O)N[C@H]1CSSC[C@@H](C(=O)N[C@@H](Cc2ccccc2)C(=O)N[C@H](C(=O)NCC(=O)N[C@H](C(=O)N[C@@H](CCCNC(=N)N)C(=O)O)[C@@H](C)O)C(C)C)NC(=O)[C@H]([C@@H](C)CC)NC(=O)[C@@H]2CCCN2C(=O)[C@@H]2CCCN2C(=O)[C@H]([C@@H](C)CC)NC(=O)[C@H](CO)NC(=O)[C@H](CCCCN)NC(=O)[C@H]([C@@H](C)O)NC1=O [HSEP3b] (H-RSVIFGCTKSIPPICFVGTR-OH; disulfide 7-15) |  |  |  | 0.5 | 6.25 (≈ 2.87 µM) | >150 | 50 (≈ 22.9 µM) | 100 (≈ 45.9 µM) | >150 | 50 (≈ 22.9 µM) | >150 |  |  |  |  |  |  |  | 
CC[C@H](C)[C@H](NC(=O)[C@@H](NC(=O)[C@H](CO)NC(=O)[C@@H](N)CCCNC(=N)N)C(C)C)C(=O)N[C@@H](Cc1ccccc1)C(=O)NCC(=O)N[C@H]1CSSC[C@@H](C(=O)N[C@@H](Cc2ccccc2)C(=O)N[C@H](C(=O)NCC(=O)N[C@@H](Cc2ccccc2)C(=O)N[C@@H](CCCCN)C(=O)O)C(C)C)NC(=O)[C@H]([C@@H](C)CC)NC(=O)[C@@H]2CCCN2C(=O)[C@@H]2CCCN2C(=O)[C@H]([C@@H](C)CC)NC(=O)[C@H](CCCCN)NC(=O)[C@H](CO)NC(=O)[C@H](CCCCN)NC(=O)[C@H]([C@@H](C)O)NC1=O [HSEP3c] (H-RSVIFGCTKSKIPPICFVGFK-OH; disulfide 7-16; N-terminus and C-terminus assumed) | 3.125 (≈ 1.34 µM) |  |  | 1.4 |  |  |  |  |  |  |  |  |  | >150 | 50 (≈ 21.5 µM) | 50 (≈ 21.5 µM) | 100 (≈ 43 µM) | 100 (≈ 43 µM) | 150 (≈ 64.5 µM)
CC[C@H](C)[C@H](NC(=O)[C@H](Cc1c[nH]c2ccccc12)NC(=O)[C@H](CO)NC(=O)[C@@H](N)CCCNC(=N)N)C(=O)N[C@@H](Cc1ccccc1)C(=O)N[C@H]1CSSC[C@@H](C(=O)N[C@@H](Cc2ccccc2)C(=O)N[C@H](C(=O)NCC(=O)N[C@@H](Cc2c[nH]c3ccccc23)C(=O)N[C@@H](CCCNC(=N)N)C(=O)O)C(C)C)NC(=O)[C@H]([C@@H](C)CC)NC(=O)[C@@H]2CCCN2C(=O)[C@@H]2CCCN2C(=O)[C@H]([C@@H](C)CC)NC(=O)[C@H](Cc2ccc(O)cc2)NC(=O)[C@H](CCCNC(=N)N)NC(=O)[C@H]([C@@H](C)O)NC1=O [HSEP3d] (H-RSWIFCTRYIPPICFVGWR-OH; disulfide 6-14; N-terminus and C-terminus assumed) | 3.125 (≈ 1.3 µM) |  |  | 0.37 |  |  |  |  |  |  |  |  |  | >150 | >150 | >150 | >150 | 100 (≈ 41.7 µM) | >150
